# Assay results from patent publication US20210038607A1, “OXADIAZOLYLTHIOPHENE DERIVATIVES USEFUL AS HISTONE DEACETYLASE INHIBITORS” (Karus Therapeutics Limited, priority 2018, published 2021).
# Columns and labels:
# [1] = biological target: T1, Complex of human HDAC3 and human NCOR2 (Homo sapiens, UniProt O15379); assay: HDAC3 biochemical assay, AMC-labeled peptide substrate; conditions: read-out: HDAC Isoform IC50 (nM) 3
# T1 construct: full length with C-terminal His tag, MW=49.7 kDa; His (C); host or cells: baculovirus expression system (co-expressed)
# T1 sequence (O15379 whole entry, canonical isoform): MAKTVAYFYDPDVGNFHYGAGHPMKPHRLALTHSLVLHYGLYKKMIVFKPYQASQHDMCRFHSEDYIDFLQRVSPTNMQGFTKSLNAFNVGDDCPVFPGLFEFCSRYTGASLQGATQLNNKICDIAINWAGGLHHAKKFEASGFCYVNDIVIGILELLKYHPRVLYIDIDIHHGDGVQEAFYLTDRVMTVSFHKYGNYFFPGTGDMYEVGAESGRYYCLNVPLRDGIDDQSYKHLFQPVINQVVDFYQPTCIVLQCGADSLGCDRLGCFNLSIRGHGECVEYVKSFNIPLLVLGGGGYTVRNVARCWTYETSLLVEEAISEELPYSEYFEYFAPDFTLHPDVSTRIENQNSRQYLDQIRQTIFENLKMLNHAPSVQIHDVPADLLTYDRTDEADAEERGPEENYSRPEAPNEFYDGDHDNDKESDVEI
# T1 sequence (Q9Y618 395-489 partner limits assumed): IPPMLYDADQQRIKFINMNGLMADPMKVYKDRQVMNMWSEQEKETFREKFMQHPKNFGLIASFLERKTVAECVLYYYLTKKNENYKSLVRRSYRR
# Summary of the method: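 Two-stage fluorogenic read: compounds incubated 1 h at 30° C with 50 μM RHKK(Ac)AMC and 0.1 ng/ul HDAC3–NCOR2(395-489) complex (Tris pH8.0, NaCl, KCl, MgCl2, BSA, 1% DMSO). Developer digestion of deacetylated product gives signal at Ex 360/Em 460.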
# Recombinant human HDAC6 = biological target: T2, Recombinant human HDAC6 (Homo sapiens, UniProt Q9UBN7); assay: HDAC6 biochemical assay, AMC-labeled peptide substrate; conditions: HDAC6; read-out: HDAC Isoform IC50 (nM) 6
# T2 construct: full length, MW=159 kDa; GST (N); host or cells: Sf9 insect cells (baculovirus)
# T2 sequence (Q9UBN7 1-1215): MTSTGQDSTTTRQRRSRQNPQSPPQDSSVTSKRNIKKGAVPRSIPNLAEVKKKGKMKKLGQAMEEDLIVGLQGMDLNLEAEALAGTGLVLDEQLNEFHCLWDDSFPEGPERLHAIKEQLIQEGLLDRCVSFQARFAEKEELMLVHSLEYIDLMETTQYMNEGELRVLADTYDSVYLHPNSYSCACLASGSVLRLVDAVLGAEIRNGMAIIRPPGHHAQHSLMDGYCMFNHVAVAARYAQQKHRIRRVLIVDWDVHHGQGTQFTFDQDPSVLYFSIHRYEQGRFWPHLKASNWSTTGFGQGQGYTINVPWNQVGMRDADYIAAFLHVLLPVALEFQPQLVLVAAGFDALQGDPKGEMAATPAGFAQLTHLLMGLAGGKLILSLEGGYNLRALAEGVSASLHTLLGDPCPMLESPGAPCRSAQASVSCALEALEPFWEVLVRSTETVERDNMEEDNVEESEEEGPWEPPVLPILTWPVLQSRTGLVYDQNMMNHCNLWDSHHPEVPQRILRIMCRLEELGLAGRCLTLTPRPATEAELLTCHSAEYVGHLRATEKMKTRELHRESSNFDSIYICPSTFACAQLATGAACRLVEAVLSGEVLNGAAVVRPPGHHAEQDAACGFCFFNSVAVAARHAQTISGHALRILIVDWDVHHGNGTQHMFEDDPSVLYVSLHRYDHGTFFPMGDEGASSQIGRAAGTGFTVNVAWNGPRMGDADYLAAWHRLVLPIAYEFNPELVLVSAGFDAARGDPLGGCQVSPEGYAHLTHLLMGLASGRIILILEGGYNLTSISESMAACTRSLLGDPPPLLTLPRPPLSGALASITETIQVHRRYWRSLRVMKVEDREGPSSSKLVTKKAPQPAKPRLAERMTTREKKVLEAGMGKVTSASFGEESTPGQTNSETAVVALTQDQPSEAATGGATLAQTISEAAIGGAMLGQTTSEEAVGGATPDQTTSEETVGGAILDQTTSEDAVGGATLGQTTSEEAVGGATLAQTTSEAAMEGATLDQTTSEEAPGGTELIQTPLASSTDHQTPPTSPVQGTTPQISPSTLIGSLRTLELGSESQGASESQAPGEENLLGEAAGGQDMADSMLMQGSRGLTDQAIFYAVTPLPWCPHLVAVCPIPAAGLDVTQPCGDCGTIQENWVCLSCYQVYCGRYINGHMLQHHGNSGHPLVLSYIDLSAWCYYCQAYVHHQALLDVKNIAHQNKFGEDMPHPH
# Summary of the method: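 Two-step fluorogenic read-out: enzyme deacetylates 50 μM RHKK(Ac)AMC for 1 h at 30° C in pH 8.0 Tris buffer with BSA and 1% DMSO, then developer cleavage gives signal at Ex 360/Em 460. Enzyme: 0.3 ng/ul recombinant full-length human HDAC6, GST-tagged, Sf9-expressed.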
# Human HDAC8 = biological target: T3, Human HDAC8 (Homo sapiens, UniProt Q9BY41); assay: HDAC8 biochemical assay, AMC-labeled peptide substrate; conditions: read-out: HDAC Isoform IC50 (nM) 8
# T3 construct: full length with C-terminal His tag, MW=42.6 kDa; His (C); host or cells: baculovirus expression system
# T3 sequence (Q9BY41 1-377): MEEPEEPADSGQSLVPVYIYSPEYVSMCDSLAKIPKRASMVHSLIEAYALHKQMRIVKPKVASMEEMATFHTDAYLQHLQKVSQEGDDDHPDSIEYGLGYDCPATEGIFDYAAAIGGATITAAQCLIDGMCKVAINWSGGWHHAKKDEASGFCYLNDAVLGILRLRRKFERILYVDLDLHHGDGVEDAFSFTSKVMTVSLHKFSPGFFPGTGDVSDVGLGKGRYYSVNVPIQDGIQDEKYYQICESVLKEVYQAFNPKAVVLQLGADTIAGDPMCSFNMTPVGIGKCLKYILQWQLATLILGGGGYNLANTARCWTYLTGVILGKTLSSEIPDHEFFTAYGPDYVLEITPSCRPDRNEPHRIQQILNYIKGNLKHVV
# Summary of the method: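 Two-step fluorogenic readout: compounds and enzyme deacetylate 100 µM RHK(Ac)K(Ac)AMC for 2 h at 30° C (pH8.0 Tris buffer, BSA, 1% DMSO final), then developer releases AMC, read at 360/460 Ex/Em. Enzyme: 1 ng/ul full-length His-tagged human HDAC8 from baculovirus.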
SMILES,IC50 [1] [nM],IC50 (Recombinant human HDAC6) [nM],IC50 (Human HDAC8) [nM]
"O=C(c1cnnc(N(Cc2ccc(-c3noc(C(F)(F)F)n3)s2)c2cnccn2)c1)N1CCCC1 [Example EA, N-(Pyrazin-2-yl)-5-(pyrrolidine-1-carbonyl)-N-({5-[5-(trifluoromethyl)-1,2,4-oxadiazol-3-yl]thiophen-2-yl}methyl)pyridazin-3-amine]",≤ 10000,≤ 500,≤ 10000
"COc1nccnc1N(Cc1ccc(-c2noc(C(F)(F)F)n2)s1)c1cnccn1 [Example BF, 3-Methoxy-N-(pyrazin-2-yl)-N-({5-[5-(trifluoromethyl)-1,2,4-oxadiazol-3-yl]thiophen-2-yl}methyl)pyrazin-2-amine]",> 10000,≤ 10000,≤ 10000
"COc1cnc(N(Cc2ccc(-c3noc(C(F)(F)F)n3)s2)c2cnccn2)cn1 [Example BI, 5-Methoxy-N-(pyrazin-2-yl)-N-({5-[5-(trifluoromethyl)-1,2,4-oxadiazol-3-yl]thiophen-2-yl}methyl)pyrazin-2-amine]",> 10000,≤ 1000,≤ 10000
"FC(F)(F)c1nc(-c2ccc(CN(c3cnccn3)c3cc(CN4CCCC4)ccn3)s2)no1 [Example GG, N-{4-[(Pyrrolidin-1-yl)methyl]pyridin-2-yl}-N-({5-[5-(trifluoromethyl)-1,2,4-oxadiazol-3-yl]thiophen-2-yl}methyl)pyrazin-2-amine]",> 10000,≤ 1000,≤ 10000
"O=C(c1ccc(N(Cc2ccc(-c3noc(C(F)(F)F)n3)s2)c2cnccn2)nn1)N1CCCC1 [Example FI, N-(Pyrazin-2-yl)-6-(pyrrolidine-1-carbonyl)-N-({5-[5-(trifluoromethyl)-1,2,4-oxadiazol-3-yl]thiophen-2-yl}methyl)pyridazin-3-amine]",≤ 10000,≤ 500,≤ 1000
"Cc1nccnc1N(Cc1ccc(-c2noc(C(F)(F)F)n2)s1)c1cnccn1 [Example BE, 3-Methyl-N-(pyrazin-2-yl)-N-({5-[5-(trifluoromethyl)-1,2,4-oxadiazol-3-yl]thiophen-2-yl}methyl)pyrazin-2-amine]",> 10000,≤ 500,≤ 10000
"CN(C(=O)c1cnnc(N(Cc2ccc(-c3noc(C(F)(F)F)n3)s2)c2cnccn2)c1)S(C)(=O)=O [Example GE, N-Methanesulfonyl-N-methyl-6-[(pyrazin-2-yl)({5-[5-(trifluoromethyl)-1,2,4-oxadiazol-3-yl]thiophen-2-yl}methyl)amino]pyridazine-4-carboxamide]",> 10000,≤ 500,≤ 10000
"O=C(c1ccc(N(Cc2ccc(-c3noc(C(F)(F)F)n3)s2)c2cnccn2)nn1)N1C[C@@H]2C[C@H]1C[S@@+]2[O-] [Example FR, (1S,2R,4S)-5-{6-[(Pyrazin-2-yl)({5-[5-(trifluoromethyl)-1,2,4-oxadiazol-3-yl]thiophen-2-yl}methyl)amino]pyridazine-3-carbonyl}-2-thia-5-azabicyclo[2.2.1]heptan-2-ium-2-olate]",≤ 10000,≤ 500,≤ 10000
"O=C(c1cnnc(N(Cc2ccc(-c3noc(C(F)(F)F)n3)s2)c2cnccn2)c1)N1CC(F)(F)C1 [Example FT, 5-(3,3-Difluoroazetidine-1-carbonyl)-N-(pyrazin-2-yl)-N-({5-[5-(trifluoromethyl)-1,2,4-oxadiazol-3-yl]thiophen-2-yl}methyl)pyridazin-3-amine]",> 10000,≤ 500,≤ 10000
"O=C(c1ccc(N(Cc2ccc(-c3noc(C(F)(F)F)n3)s2)c2cnccn2)nn1)N1CC(O)(C(F)(F)F)C1 [Example FK, 1-{6-[(Pyrazin-2-yl)({5-[5-(trifluoromethyl)-1,2,4-oxadiazol-3-yl]thiophen-2-yl}methyl)amino]pyridazine-3-carbonyl}-3-(trifluoromethyl)azetidin-3-ol]",≤ 10000,≤ 500,≤ 1000
